Results on 2 compounds are retold here after article PMC5333991 (Journal of biomolecular screening, 2009).

Molecules are shown by their SMILES. A value given as a limit tells only on which side of the number the result lay.

One series addresses CYP3A4 (Homo sapiens, UniProt P08684). The experiment in a line: fluorogenic CYP450 inhibition assay. It is filed as biochemical.
A further series has as its target CYP2C9 (Homo sapiens, UniProt P11712). Put plainly: in vitro.

Chain of CYP3A4 (P08684 2-503): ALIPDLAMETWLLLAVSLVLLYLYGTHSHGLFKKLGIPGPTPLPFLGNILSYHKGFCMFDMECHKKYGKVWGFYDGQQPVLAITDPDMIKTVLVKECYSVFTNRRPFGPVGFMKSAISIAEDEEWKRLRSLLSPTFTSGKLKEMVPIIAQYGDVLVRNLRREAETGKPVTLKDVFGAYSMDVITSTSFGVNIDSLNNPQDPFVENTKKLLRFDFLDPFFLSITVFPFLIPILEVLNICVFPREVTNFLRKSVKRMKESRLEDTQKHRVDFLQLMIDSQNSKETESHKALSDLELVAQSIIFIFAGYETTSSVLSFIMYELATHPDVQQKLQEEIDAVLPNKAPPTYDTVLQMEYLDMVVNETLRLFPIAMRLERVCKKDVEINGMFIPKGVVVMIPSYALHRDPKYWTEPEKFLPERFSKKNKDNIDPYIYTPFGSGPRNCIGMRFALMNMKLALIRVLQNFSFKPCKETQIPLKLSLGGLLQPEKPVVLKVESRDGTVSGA
Chain of CYP3A4 (P16435 2-677 partner): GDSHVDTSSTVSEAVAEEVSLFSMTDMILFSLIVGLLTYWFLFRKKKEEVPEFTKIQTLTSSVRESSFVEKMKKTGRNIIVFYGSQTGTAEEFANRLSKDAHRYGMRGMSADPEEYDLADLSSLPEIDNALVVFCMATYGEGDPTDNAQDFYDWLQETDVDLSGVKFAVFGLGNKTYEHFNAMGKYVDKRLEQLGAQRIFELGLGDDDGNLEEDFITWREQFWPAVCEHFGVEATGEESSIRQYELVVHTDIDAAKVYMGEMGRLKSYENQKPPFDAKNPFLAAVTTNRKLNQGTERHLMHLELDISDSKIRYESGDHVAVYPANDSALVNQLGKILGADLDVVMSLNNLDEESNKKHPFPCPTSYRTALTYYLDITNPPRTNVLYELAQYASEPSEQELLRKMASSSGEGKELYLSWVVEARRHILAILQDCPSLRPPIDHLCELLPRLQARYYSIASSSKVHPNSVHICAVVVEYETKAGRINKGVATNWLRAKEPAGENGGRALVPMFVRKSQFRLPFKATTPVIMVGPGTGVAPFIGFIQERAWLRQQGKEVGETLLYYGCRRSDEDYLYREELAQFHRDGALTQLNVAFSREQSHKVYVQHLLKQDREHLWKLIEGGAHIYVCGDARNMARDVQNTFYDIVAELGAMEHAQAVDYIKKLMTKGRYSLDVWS
Chain of CYP2C9 (P11712 whole entry): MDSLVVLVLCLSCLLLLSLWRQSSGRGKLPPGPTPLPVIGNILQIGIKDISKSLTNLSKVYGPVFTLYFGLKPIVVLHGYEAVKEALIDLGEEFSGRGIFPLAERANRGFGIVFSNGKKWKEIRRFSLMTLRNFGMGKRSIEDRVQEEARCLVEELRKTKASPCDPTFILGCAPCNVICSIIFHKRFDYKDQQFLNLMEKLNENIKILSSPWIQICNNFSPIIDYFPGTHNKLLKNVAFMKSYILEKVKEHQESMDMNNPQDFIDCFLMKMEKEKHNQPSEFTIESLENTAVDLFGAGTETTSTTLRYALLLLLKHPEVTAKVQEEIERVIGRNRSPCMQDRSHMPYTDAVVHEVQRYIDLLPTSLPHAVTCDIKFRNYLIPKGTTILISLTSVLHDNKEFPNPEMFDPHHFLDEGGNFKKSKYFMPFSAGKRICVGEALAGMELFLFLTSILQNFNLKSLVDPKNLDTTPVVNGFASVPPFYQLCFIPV
Chain of CYP2C9 (P16435 2-677 partner): as the sequence (P16435 2-677 partner) above

Take `CC(=O)N1CCN(c2ccc(OC[C@H]3CO[C@](Cn4ccnc4)(c4ccc(Cl)cc4Cl)O3)cc2)CC1` (relative stereo) [ketoconazole]: on CYP3A4, the activity at 0.1 µM was under 40%.

Compound `Nc1ccc(S(=O)(=O)Nc2ccnn2-c2ccccc2)cc1` [sulfaphenazole] had an activity at 0.25 µM on CYP2C9 of about 50%.
